Test results: patent publication US8008299B2, “Urotensin II receptor antagonists” (Janssen Pharmaceutica, N.V., priority 2007, dated 2011)
Read-outs that look alike come from different tables or passages of the source.

How the values were obtained:
[1] = target: T1, UT receptors in HSMM (Human Skeletal Muscle Myoblasts) (Homo sapiens, UniProt Q9UKP6); assay: Human Radioligand Binding Assay ((^125I)-U-II binding to intact HSMM)
T1 sequence (Q9UKP6 1-389): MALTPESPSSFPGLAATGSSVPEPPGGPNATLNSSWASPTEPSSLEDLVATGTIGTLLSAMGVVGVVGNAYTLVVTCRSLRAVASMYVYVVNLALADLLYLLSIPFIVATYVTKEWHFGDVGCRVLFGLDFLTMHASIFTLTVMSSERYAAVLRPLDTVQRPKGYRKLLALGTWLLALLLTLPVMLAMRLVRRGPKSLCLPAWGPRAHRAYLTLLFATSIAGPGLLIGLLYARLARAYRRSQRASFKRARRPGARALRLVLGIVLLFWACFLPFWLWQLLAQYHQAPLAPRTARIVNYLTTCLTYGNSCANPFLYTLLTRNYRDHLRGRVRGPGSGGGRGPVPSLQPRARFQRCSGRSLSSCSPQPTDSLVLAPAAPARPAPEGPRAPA

[2] = target: T2, Human UII (U-II receptor) in 6D9 human rhabdomyosarcoma cells (Homo sapiens, UniProt Q9UKP6); assay: Human UII Calcium Mobilization Assay; format: cell-based
T2 construct: 6D9: isolated by dilution subcloning of RMS13 cells, ATCC® Number: CRL-2061; host or cells: 6D9 human rhabdomyosarcoma cells (subclone of RMS13)
T2 sequence (Q9UKP6 1-389): T1 sequence (Q9UKP6 1-389)

[3] = target: T3, rat GPR14 (U-II receptor) (Rattus norvegicus, UniProt P49684); assay: Rat UII Calcium Mobilization FLIPR Assay; format: cell-based; settings: CHO cells transfected with rat GPR14; antagonist activity after 5 min incubation vs agonist (Ac)-CFWK(2-NaI)C-NH2 at 1 nM
T3 construct: expressed in transfected cells
T3 sequence (P49684 1-386): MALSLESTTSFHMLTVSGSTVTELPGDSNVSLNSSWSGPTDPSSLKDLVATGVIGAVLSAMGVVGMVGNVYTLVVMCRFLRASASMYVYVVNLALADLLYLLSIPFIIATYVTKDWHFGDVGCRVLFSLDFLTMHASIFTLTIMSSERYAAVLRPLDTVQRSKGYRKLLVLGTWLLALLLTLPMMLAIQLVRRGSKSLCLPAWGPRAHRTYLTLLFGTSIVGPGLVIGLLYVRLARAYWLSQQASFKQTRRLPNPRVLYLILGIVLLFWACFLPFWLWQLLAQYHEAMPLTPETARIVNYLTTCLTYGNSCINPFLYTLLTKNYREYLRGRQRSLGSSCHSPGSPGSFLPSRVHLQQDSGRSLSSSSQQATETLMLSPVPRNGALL
How it was run: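 CHO cells stably expressing rat U-II receptor, seeded 24 h before assay, were loaded with FLIPR calcium dye in HBSS/20 mM HEPES/0.1% BSA/2.5 mM probenecid, pH 7.4, for 1 h at 37° C. Calcium mobilization then read by FLIPR at 23° C.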

[4] = read-out: Human UII Average Binding Ki, intact HSMM, 0.150 nM (^125I)-U-II, 3 h, 25° C.
[5] = 6D9 human rhabdomyosarcoma cells, FLIPR TETRA, average, read-out: Human UII Ca+ Mobilization Average IC50

| Structure (SMILES) | Ki [1, 4] [nM] | IC50 [2, 5] [nM] | IC50 [3] [nM] | Ki [1] [nM] | IC50 [2] [nM] |
| --- | --- | --- | --- | --- | --- |
| CCN1CCN(c2cccc3c2CN([C@H](CCCNCc2cccs2)c2ccc(OC)c(OC)c2)C3=O)CC1 [Cpd 72, 2-{(1R)-1-(3,4-dimethoxy-phenyl)-4-[(thiophen-2-ylmethyl)-amino]-butyl}-4-(4-ethyl-piperazin-1-yl)-2,3-dihydro-isoindol-1-one] | 18 | 59 | 6 | – | – |
| CCN1CCN(c2cccc3c2CN([C@H](CCCN(Cc2ccccc2)Cc2ccccc2)c2ccc(OC)c(OC)c2)C3=O)CC1 [Cpd 73, 2-[(1R)-4-dibenzylamino-1-(3,4-dimethoxy-phenyl)-butyl]-4-(4-ethyl-piperazin-1-yl)-2,3-dihydro-isoindol-1-one] | – | 178 | 26 | 53 | – |
| CCN1CCN(c2cccc3c2CN([C@H](CCCOCc2ccccc2)c2ccc(OC)c(OC)c2)C3=O)CC1 [Cpd 74, 2-[(1R)-4-benzyloxy-1-(3,4-dimethoxy-phenyl)-butyl]-4-(4-ethyl-piperazin-1-yl)-2,3-dihydro-isoindol-1-one] | – | 145 | 5 | 19 | – |
| CCN1CCN(c2cccc3c2CN([C@H](CCCNCC(C)(C)C)c2ccc(OC)c(OC)c2)C3=O)CC1 [Cpd 75, 2-[(1R)-1-(3,4-dimethoxy-phenyl)-4-(2,2-dimethyl-propylamino)-butyl]-4-(4-ethyl-piperazin-1-yl)-2,3-dihydro-isoindol-1-one] | – | 2590 | 37 | 242 | – |
| CCN1CCN(c2cccc3c2CN([C@H](CCCNc2c(N)c(=O)c2=O)c2ccc(OC)c(OC)c2)C3=O)CC1 [Cpd 76, 3-amino-4-{(4R)-4-(3,4-dimethoxy-phenyl)-4-[4-(4-ethyl-piperazin-1-yl)-1-oxo-1,3-dihydro-isoindol-2-yl]-butylamino}-cyclobut-3-ene-1,2-dione] | – | 674 | 46 | 33 | – |
| CCN1CCN(c2cccc3c2CN([C@H](CCCNCc2ccccc2)c2ccc(OC)c(OC)c2)C3=O)CC1 [Cpd 77, 2-[(1R)-4-benzylamino-1-(3,4-dimethoxy-phenyl)-butyl]-4-(4-ethyl-piperazin-1-yl)-2,3-dihydro-isoindol-1-one] | – | 47 | 5 | 26 | – |
| CCN1CCN(c2cccc3c2CN([C@H](CCCNC(=O)c2ccco2)c2ccc(OC)c(OC)c2)C3=O)CC1 [Cpd 78, furan-2-carboxylic acid {(4R)-4-(3,4-dimethoxy-phenyl)-4-[4-(4-ethyl-piperazin-1-yl)-1-oxo-1,3-dihydro-isoindol-2-yl]-butyl}-amide] | – | 394 | 15 | 20 | – |
| CCN1CCN(c2cccc3c2CN([C@H](CCCNC(=O)c2cn[nH]c2)c2ccc(OC)c(OC)c2)C3=O)CC1 [Cpd 79, 1H-pyrazole-4-carboxylic acid {(4R)-4-(3,4-dimethoxy-phenyl)-4-[4-(4-ethyl-piperazin-1-yl)-1-oxo-1,3-dihydro-isoindol-2-yl]-butyl}-amide] | – | 133 | 6 | 39 | – |
| CCN1CCN(c2cccc3c2CN([C@H](CCCNC(=O)C2CCC2)c2ccc(OC)c(OC)c2)C3=O)CC1 [Cpd 80, cyclobutanecarboxylic acid {(4R)-4-(3,4-dimethoxy-phenyl)-4-[4-(4-ethyl-piperazin-1-yl)-1-oxo-1,3-dihydro-isoindol-2-yl]-butyl}-amide] | – | 311 | 21 | 18 | – |
| CCN1CCN(c2cccc3c2CN([C@H](CCCNC(=O)c2cccs2)c2ccc(OC)c(OC)c2)C3=O)CC1 [Cpd 81, thiophene-2-carboxylic acid {(4R)-4-(3,4-dimethoxy-phenyl)-4-[4-(4-ethyl-piperazin-1-yl)-1-oxo-1,3-dihydro-isoindol-2-yl]-butyl}-amide] | 18 | – | 7 | – | 137 |
| CCN1CCN(c2cccc3c2CN([C@H](CCCNS(=O)(=O)c2cn(C)c(C)n2)c2ccc(OC)c(OC)c2)C3=O)CC1 [Cpd 82, 1,2-dimethyl-1H-imidazole-4-sulfonic acid {(4R)-4-(3,4-dimethoxy-phenyl)-4-[4-(4-ethyl-piperazin-1-yl)-1-oxo-1,3-dihydro-isoindol-2-yl]-butyl}-amide] | – | 51 | 23 | 25 | – |
| CCN1CCN(c2cccc3c2CN([C@H](CCCNC(=O)C(C)(C)C)c2ccc(OC)c(OC)c2)C3=O)CC1 [Cpd 83, N-{(4R)-4-(3,4-dimethoxy-phenyl)-4-[4-(4-ethyl-piperazin-1-yl)-1-oxo-1,3-dihydro-isoindol-2-yl]-butyl}-2,2-dimethyl-propionamide] | – | 200 | 45 | 17 | – |
| CCN1CCN(c2cccc3c2CN([C@H](CCCNS(=O)(=O)c2cccs2)c2ccc(OC)c(OC)c2)C3=O)CC1 [Cpd 84, thiophene-2-sulfonic acid {(4R)-4-(3,4-dimethoxy-phenyl)-4-[4-(4-ethyl-piperazin-1-yl)-1-oxo-1,3-dihydro-isoindol-2-yl]-butyl}-amide] | 4 | 8 | 1 | – | – |
| COc1ccc([C@@H](CCCNC(=O)c2cnoc2C)N2Cc3c(cccc3N3CCN(C(C)c4ccccc4)CC3)C2=O)cc1OC (stereo partly drawn) [Cpd 85, 5-methyl-isoxazole-4-carboxylic acid ((4R)-4-(3,4-dimethoxy-phenyl)-4-{1-oxo-4-[4-(1-phenyl-ethyl)-piperazin-1-yl]-1,3-dihydro-isoindol-2-yl}-butyl)-amide] | – | – | 6 | 15 | 325 |
| CCN1CCN(c2cccc3c2CN([C@H](CCCN(Cc2ccc(F)cc2)C2CC2)c2ccc(OC)c(OC)c2)C3=O)CC1 [Cpd 90, 2-[(1R)-4-[cyclopropyl-(4-fluoro-benzyl)-amino]-1-(3,4-dimethoxy-phenyl)-butyl]-4-(4-ethyl-piperazin-1-yl)-2,3-dihydro-isoindol-1-one] | – | 168 | 6 | 34 | – |
| CCN1CCN(c2cccc3c2CN([C@H](CCCNCc2ccc(F)cc2)c2ccc(OC)c(OC)c2)C3=O)CC1 [Cpd 91, 2-[(1R)-1-(3,4-dimethoxy-phenyl)-4-(4-fluoro-benzylamino)-butyl]-4-(4-ethyl-piperazin-1-yl)-2,3-dihydro-isoindol-1-one] | – | 106 | 3 | 62 | – |
| CCN1CCN(c2cccc3c2CN([C@H](CCCNc2ccccn2)c2ccc(OC)c(OC)c2)C3=O)CC1 [Cpd 92, 2-[(1R)-1-(3,4-dimethoxy-phenyl)-4-(pyridin-2-ylamino)-butyl]-4-(4-ethyl-piperazin-1-yl)-2,3-dihydro-isoindol-1-one] | – | 911 | 74 | 60 | – |
| CCN1CCN(c2cccc3c2CN([C@H](CCCNc2cccc[n+]2[O-])c2ccc(OC)c(OC)c2)C3=O)CC1 [Cpd 93, 2-[(1R)-1-(3,4-dimethoxy-phenyl)-4-(1-oxy-pyridin-2-ylamino)-butyl]-4-(4-ethyl-piperazin-1-yl)-2,3-dihydro-isoindol-1-one] | – | 555 | 82 | 125 | – |
| CCN1CCN(c2cccc3c2CN([C@H](CCCN(C)Cc2ccco2)c2ccc(OC)c(OC)c2)C3=O)CC1 [Cpd 94, 2-[(1R)-1-(3,4-dimethoxy-phenyl)-4-(furan-2-ylmethyl-methyl-amino)-butyl]-4-(4-ethyl-piperazin-1-yl)-2,3-dihydro-isoindol-1-one] | – | 74 | 4 | 43 | – |
